According to patent US20180353462A1, “[…] AGENTS […] FLAVONOID DERIVATIVES TARGETING KINASES, SIRTUINS AND ONCOGENIC AGENTS FOR THE TREATMENT OF CANCERS” (priority 2015, published 2018):

What was measured:
[1] = target: T1, KIT(L576P) (Homo sapiens, UniProt P10721, L576P); test: Kinase competition binding assay, KIT(L576P); conditions: Table 1 kinase panel
T1 construct: made in house
Procedure: (§1) Cannabis flavonoids and their analogs were subjected to kinase inhibition assay. The compounds were first screened at a single concentration of 10 μM in the primary assay. […]. To determine the kd or IC50 values, competition binding assays were established, authenticated and executed as described previously. Fabian et al., “A Small Molecule-Kinase Interaction Map For Clinical Kinase Inhibitors.”, Nat Biotechnol, 23(3):329-36, Epub (2005). See also, Karaman et al., “A Quantitative Analysis Of Kinase Inhibitor Selectivity”, Nat. Biotechnol. […] For most assays, kinases were fused to T7 phage strains (Fabian, supra) and for the other assays, kinases were produced in HEK-293 cells after which they were tagged with DNA for quantitative PCR detection. In general, full-length constructs were used for small, single domain kinases, and catalytic domain constructs for large multi-domain kinases. The binding assays utilized streptavidin-coated magnetic beads treated with biotinylated small molecule ligands for 30 minutes at room temperature which generated affinity resins for the kinase assays. The liganded beads were blocked with excess biotin and washed with blocking buffer (SeaBlock (Pierce), 1% BSA, 0.05% Tween 20, 1 mM DTT) to remove unbound ligand and to reduce non-specific phage binding. […] Test compounds were prepared as 40× stocks in 100% DMSO and diluted directly into the assay (Final DMSO concentration=2.5%). All reactions were performed in polypropylene 384-well plates in a final volume of 0.04 ml. […] The beads were then re-suspended in elution buffer (1×PBS, 0.05% Tween 20, 0.5 μM non-biotinylated affinity ligand) and incubated at room temperature with shaking for 30 minutes. The kinase concentration in the eluates was measured by quantitative PCR. An illustration of the kinase interaction process is presented below. Kd/IC50 values were determined using a standard dose response curve using the hill equation. Curves were fitted using a non-linear least square fit with the Levenberg-Marquardt algorithm.
(§2) The compound(s) were screened at 10 μM and results for primary screen binding interactions are reported as ‘% Ctrl’, where lower numbers indicate stronger hits in the matrix.

[2] = target: T2, PDGFRB (Homo sapiens, UniProt P09619); test: Kinase competition binding assay, PDGFRB; conditions: Table 1 kinase panel
T2 construct: catalytic domain constructs for large multi-domain kinases; T7 phage fusion (most assays) or DNA tag for qPCR (HEK-293-made kinases); made in house
Procedure: as §1, §2

[3] = target: T3, FLT4(VEGFR3) (Homo sapiens, UniProt P35916); test: Kinase competition binding assay, FLT4(VEGFR3); conditions: Table 1 kinase panel
T3 construct: made in house
Procedure: as §1, §2

[4] = target: T4, DYRK1B (Homo sapiens, UniProt Q9Y463); test: Kinase competition binding assay, DYRK1B; conditions: Table 1 kinase panel
T4 construct: made in house
Procedure: as §1, §2

[5] = target: T5, c-Kit(D820Y) (Homo sapiens, UniProt P10721, D820Y); test: Kinase competition binding assay, c-Kit(D820Y); conditions: Table 1 kinase panel
T5 construct: made in house
Procedure: as §1, §2

[6] = tested on: CFPAC-1 (Pancreatic); test: WST-1 anticancer cell proliferation assay, CFPAC-1; type: cell-based, human; conditions: 72 hours
Procedure: Bioactivity of the above-described compounds has been verified by an anticancer cell proliferation assay using the WST-1 (4-[3-(4-iodophenyl)-2-(4-nitrophenyl)-2H-5-tetrazolio]-1, 3-benzene disulfonate) colorimetric assay by Roche Life Sciences®. Anticancer activity was tested against several standard cancer cell lines including brain, breast, Kaposi sarcoma, leukemia, lung, melanoma, tenosynovial giant cell tumor, ovarian, pancreatic, colon and prostate cancer. Cells were trypsinized and plated into 96 well plates in 50 μl of media and incubated overnight. The next day approximately 18 hours after plating, 50 μl of media containing the required flavonoid-based pharmaceutical composition was added per well. Cells were plated at a density so that 72 hours post drug addition, the cells will be in log phase (500)-2000 cells/well). The compounds and extracts were solubilized in Dimethyl sulfoxide (DMSO). The cells are allowed to proliferate for 72 hours 37° C. in humidified atmosphere of 5% CO2. The experiment is terminated using WST-1 (Roche®) 10 μl per well and absorbance is read at 450 nm %690 nm. The effect of drugs on growth is assessed as percent of cell viability. The IC50 values were determined from the extract dose versus control growth curves using Graphpad Prism® software. All experiments were carried out in duplicate and the mean results determined.

[7] = target: EFGR(L858R, T7790M); test: Kinase competition binding assay, EFGR(L858R, T7790M); conditions: Table 1 kinase panel
Procedure: as §1, §2

[8] = target: T6, DRAK2 (Homo sapiens, UniProt O94768); test: Kinase competition binding assay, DRAK2; conditions: Table 1 kinase panel
T6 construct: made in house
T6 sequence (O94768 1-372): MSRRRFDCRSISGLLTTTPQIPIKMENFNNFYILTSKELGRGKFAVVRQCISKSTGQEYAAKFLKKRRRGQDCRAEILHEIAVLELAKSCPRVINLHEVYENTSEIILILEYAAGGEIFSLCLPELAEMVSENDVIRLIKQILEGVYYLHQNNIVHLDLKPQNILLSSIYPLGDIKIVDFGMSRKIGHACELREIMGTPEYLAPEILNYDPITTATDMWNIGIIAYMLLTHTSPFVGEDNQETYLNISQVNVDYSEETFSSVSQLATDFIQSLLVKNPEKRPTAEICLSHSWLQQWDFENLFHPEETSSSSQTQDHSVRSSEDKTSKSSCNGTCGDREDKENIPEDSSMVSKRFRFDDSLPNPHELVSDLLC
Procedure: as §1, §2

[9] = target: T7, FMS/CSF1R (Homo sapiens, UniProt P07333); test: Kinase competition binding assay, FMS/CSF1R; conditions: Table 1 kinase panel
T7 construct: made in house
Procedure: as §1, §2

T2 sequence (P09619 600-962 limits assumed): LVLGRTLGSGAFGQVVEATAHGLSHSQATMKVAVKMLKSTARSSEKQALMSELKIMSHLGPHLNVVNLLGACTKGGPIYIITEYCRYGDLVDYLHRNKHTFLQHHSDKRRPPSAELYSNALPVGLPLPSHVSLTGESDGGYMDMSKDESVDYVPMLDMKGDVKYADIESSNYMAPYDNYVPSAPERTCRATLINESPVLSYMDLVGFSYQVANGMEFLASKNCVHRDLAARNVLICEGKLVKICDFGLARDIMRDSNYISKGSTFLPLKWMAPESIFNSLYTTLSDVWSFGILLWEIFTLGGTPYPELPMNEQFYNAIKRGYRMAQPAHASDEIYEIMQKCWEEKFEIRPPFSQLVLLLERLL
T1 sequence (P10721 26-976 L576P): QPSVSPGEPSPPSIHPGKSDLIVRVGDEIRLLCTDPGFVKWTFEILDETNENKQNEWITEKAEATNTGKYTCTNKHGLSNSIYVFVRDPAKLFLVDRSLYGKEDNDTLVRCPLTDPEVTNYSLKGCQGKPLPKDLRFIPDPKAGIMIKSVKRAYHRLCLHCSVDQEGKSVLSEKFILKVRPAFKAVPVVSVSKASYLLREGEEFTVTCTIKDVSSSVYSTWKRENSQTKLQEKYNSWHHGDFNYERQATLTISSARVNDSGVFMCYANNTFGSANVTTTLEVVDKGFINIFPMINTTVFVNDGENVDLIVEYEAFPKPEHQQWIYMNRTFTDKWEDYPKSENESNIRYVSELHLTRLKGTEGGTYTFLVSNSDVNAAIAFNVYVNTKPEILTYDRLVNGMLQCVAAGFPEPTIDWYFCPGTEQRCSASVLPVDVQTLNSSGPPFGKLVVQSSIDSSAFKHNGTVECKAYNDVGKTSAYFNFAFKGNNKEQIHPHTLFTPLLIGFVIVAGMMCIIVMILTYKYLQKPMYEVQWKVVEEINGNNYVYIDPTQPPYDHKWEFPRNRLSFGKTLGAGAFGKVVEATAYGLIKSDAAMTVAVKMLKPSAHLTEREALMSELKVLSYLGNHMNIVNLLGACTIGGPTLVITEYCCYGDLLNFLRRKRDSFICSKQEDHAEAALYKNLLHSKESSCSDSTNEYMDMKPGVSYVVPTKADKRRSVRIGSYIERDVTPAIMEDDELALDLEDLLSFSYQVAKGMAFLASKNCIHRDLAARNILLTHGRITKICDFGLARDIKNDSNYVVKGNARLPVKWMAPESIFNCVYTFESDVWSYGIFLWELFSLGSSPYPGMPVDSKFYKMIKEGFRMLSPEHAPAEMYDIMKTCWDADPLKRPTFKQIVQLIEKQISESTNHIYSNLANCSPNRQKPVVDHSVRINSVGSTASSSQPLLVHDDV
T3 sequence (P35916 25-1363): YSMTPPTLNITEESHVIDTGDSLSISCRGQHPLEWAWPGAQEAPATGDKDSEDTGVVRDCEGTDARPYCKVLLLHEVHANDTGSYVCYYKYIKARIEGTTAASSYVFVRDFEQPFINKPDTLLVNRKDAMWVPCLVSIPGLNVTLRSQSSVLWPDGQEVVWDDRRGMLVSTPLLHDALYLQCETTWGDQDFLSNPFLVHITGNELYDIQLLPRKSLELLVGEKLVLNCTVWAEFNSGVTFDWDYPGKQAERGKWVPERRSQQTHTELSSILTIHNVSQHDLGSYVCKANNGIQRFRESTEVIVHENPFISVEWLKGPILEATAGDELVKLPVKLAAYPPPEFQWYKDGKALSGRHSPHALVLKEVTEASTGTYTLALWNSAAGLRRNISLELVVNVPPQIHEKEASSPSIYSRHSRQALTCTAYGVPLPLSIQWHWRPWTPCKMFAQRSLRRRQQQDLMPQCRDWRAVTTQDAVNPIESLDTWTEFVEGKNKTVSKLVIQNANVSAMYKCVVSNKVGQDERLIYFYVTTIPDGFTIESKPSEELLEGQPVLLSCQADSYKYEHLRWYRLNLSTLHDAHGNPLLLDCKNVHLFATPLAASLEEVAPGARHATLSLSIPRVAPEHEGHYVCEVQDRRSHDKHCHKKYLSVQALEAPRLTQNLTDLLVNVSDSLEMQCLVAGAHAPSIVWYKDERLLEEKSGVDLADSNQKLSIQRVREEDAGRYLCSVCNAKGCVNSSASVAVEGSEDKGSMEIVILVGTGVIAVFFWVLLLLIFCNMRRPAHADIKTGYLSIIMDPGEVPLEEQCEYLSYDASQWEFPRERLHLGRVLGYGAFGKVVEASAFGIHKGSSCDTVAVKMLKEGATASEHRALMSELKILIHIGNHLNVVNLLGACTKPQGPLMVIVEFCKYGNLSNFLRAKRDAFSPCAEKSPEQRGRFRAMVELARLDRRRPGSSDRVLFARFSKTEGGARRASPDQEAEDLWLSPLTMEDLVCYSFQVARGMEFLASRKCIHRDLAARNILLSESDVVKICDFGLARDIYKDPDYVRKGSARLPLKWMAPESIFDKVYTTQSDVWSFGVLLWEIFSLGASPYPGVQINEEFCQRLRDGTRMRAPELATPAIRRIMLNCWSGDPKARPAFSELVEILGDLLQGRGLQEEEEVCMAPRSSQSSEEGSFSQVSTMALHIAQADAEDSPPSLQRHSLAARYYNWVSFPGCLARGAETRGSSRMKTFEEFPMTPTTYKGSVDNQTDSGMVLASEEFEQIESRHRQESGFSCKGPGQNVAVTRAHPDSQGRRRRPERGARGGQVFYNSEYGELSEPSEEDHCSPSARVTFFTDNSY
T7 sequence (P07333 20-972): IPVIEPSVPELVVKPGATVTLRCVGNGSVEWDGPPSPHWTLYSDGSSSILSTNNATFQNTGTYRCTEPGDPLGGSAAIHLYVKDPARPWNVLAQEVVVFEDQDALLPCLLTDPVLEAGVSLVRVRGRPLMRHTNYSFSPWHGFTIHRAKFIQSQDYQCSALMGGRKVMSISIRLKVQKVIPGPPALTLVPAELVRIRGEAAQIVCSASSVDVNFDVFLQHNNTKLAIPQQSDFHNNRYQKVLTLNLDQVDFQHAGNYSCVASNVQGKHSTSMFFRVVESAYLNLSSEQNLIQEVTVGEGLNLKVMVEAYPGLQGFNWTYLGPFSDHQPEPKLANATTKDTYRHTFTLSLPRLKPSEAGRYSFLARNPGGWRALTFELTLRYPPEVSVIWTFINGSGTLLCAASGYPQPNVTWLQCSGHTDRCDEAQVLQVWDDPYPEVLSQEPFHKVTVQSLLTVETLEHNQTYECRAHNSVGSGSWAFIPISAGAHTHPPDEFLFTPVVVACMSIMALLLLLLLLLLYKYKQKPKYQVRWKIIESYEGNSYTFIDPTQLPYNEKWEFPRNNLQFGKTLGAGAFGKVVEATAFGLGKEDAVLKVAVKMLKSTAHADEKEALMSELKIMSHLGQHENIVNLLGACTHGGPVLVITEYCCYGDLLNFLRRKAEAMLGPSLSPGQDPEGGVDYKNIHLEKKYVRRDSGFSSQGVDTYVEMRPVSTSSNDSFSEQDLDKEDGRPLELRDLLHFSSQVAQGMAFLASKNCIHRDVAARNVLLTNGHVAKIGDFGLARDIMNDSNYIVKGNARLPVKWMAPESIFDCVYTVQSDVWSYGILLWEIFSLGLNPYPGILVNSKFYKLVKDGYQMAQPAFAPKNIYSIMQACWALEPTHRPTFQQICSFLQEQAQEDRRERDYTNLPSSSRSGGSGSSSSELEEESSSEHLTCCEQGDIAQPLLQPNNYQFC
T5 sequence (P10721 26-976 D820Y): as the sequence (P10721 26-976 L576P) above, with P551L, D795Y counted along it
T4 sequence (Q9Y463 whole entry): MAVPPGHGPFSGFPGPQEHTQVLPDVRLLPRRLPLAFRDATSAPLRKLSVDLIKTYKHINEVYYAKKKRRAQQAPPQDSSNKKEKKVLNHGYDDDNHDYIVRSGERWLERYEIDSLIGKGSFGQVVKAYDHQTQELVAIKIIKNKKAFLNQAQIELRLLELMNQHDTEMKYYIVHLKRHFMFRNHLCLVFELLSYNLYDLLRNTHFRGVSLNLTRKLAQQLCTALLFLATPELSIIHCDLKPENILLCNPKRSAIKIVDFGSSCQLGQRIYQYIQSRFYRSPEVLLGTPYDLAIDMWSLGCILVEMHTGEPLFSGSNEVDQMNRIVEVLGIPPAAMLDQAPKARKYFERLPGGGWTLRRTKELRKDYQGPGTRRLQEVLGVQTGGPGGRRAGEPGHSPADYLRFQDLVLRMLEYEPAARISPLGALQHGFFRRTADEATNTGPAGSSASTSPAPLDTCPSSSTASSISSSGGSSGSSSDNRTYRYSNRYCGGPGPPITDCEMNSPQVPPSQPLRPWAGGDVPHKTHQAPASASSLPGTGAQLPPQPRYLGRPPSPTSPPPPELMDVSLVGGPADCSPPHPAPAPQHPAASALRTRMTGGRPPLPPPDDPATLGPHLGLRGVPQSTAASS

Structure (SMILES)	IC50 [1] [nM]	IC50 [2] [nM]	IC50 [3] [nM]	IC50 [4] [nM]	IC50 [5] [nM]	IC50 [6] [µM]	IC50 [7] [nM]	IC50 [8] [nM]	IC50 [9] [nM]
COc1cc(-c2cc(=O)c3c(O)c(C/C=C(\C)CCC=C(C)C)c(O)cc3o2)ccc1O [FBL-03A]	180	330	330	> 20000	> 20000	12	> 20000	> 20000	1500
COc1cc(-c2cc(=O)c3c(O)c(CC=C(C)C)c(O)cc3o2)ccc1O [FBL-03B]	< 1000	1160	9.3	1670	1280	17	> 1000	< 1000	199
COc1cc(-c2cc(=O)c3c(O)cc(O)c(C/C=C(\C)CCC=C(C)C)c3o2)ccc1O [FBL-03C]	> 1000	> 1000	> 20000	6400	> 20000	12	680	980	1200
COc1ccc(-c2cc(=O)c3c(O)c(C/C=C(\C)CCC=C(C)C)c(O)cc3o2)cc1OC [FBL-03D]	> 30000	> 30000	> 30000	> 30000	> 30000		> 30000	> 30000	> 30000
COc1cc(-c2cc(=O)c3c(O)cc(O)c(CC=C(C)C)c3o2)ccc1O [FBL-03G]	< 1000	3310	4220	22.8	113	14.3	> 1000	> 10000	4
